From ChEMBL document CHEMBL1144565, “Anti-breast cancer activity of LFM-A13, a potent inhibitor of Polo-like kinase (PLK)” (Bioorg Med Chem, 2007)
Active and inactive are the calls of the source. No cut-off for these calls is given here.

Experiments:
Mus musculus [1] = assay: Subacute toxicity in CD1 mouse assessed as WBC counts at 40 mg/kg, ip after 30 days; assay type: organism-based; set-up: dose 40 mg/kg, route intraperitoneal; conditions: in vivo, 720 h
Mus musculus [2] = assay: Subacute toxicity in CD1 mouse assessed as WBC counts at 10 mg/kg, ip after 30 days; assay type: organism-based; set-up: dose 10 mg/kg, route intraperitoneal; conditions: in vivo, 720 h
Rattus norvegicus [3] = assay: Toxicity in Lewis rat assessed as WBC counts at 40 mg/kg, iv after 7 days; assay type: organism-based; set-up: dose 40 mg/kg, route intravenous; conditions: in vivo, 168 h
[4] = target: Platelet-derived growth factor receptor (Homo sapiens, UniProt P09619+P16234); assay: Inhibition of PDGFR; assay type: protein-complex assay
Mus musculus [5] = assay: Toxicity in cumulative po dosed BALB/c mouse; assay type: organism-based; conditions: in vivo
Rattus norvegicus [6] = assay: Toxicity in Lewis rat assessed as absolute neutrophil counts at 20 mg/kg, iv after 7 days; assay type: organism-based; set-up: dose 20 mg/kg, route intravenous; conditions: in vivo, 168 h
Mus musculus [7] = assay: Acute toxicity in CD1 mouse assessed as myeloid or lymphoid hyperplasia in bone marrow at 80 mg/kg, ip after 7 days; assay type: organism-based; set-up: dose 80 mg/kg, route intraperitoneal; conditions: in vivo, 168 h
Mus musculus [8] = assay: Subacute toxicity in CD1 mouse assessed as absolute neutrophil counts at 80 mg/kg, ip after 30 days; assay type: organism-based; set-up: dose 80 mg/kg, route intraperitoneal; conditions: in vivo, 720 h
Mus musculus [9] = assay: Acute toxicity in CD1 mouse assessed as myeloid or lymphoid hyperplasia in bone marrow at 20 mg/kg, ip after 7 days; assay type: organism-based; set-up: dose 20 mg/kg, route intraperitoneal; conditions: in vivo, 168 h
U-373MG ATCC = assay: Induction of aberrant monopolar and multipolar spindle formation in human U373 cells at 100 uM; assay type: functional, cell-based
Mus musculus [10] = assay: Acute toxicity in CD1 mouse assessed as absolute lymphocyte counts at 20 mg/kg, ip after 7 days; assay type: organism-based; set-up: dose 20 mg/kg, route intraperitoneal; conditions: in vivo, 168 h
[11] = target: Protein-tyrosine kinase 6 (Homo sapiens, UniProt Q13882); assay: Inhibition of BRK
Chain of Protein-tyrosine kinase 6 (Q13882 whole entry): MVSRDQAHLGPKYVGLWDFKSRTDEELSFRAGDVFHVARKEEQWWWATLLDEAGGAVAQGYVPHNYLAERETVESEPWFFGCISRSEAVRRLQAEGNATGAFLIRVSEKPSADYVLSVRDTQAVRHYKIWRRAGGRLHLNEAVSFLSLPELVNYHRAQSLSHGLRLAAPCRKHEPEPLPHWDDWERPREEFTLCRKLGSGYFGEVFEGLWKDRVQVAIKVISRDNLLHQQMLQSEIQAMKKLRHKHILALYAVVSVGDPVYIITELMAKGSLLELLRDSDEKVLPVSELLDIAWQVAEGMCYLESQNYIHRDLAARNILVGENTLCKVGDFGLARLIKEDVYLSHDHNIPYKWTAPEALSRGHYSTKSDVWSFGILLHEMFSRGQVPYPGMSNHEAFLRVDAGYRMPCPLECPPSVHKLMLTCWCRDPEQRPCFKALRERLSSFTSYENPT

[12] = target: T1, Serine/threonine-protein kinase PLK3 (Homo sapiens, UniProt Q9H4B4); assay: Inhibition of human PLK3 in presence of 200 uM ATP
T1 sequence (Q9H4B4 whole entry): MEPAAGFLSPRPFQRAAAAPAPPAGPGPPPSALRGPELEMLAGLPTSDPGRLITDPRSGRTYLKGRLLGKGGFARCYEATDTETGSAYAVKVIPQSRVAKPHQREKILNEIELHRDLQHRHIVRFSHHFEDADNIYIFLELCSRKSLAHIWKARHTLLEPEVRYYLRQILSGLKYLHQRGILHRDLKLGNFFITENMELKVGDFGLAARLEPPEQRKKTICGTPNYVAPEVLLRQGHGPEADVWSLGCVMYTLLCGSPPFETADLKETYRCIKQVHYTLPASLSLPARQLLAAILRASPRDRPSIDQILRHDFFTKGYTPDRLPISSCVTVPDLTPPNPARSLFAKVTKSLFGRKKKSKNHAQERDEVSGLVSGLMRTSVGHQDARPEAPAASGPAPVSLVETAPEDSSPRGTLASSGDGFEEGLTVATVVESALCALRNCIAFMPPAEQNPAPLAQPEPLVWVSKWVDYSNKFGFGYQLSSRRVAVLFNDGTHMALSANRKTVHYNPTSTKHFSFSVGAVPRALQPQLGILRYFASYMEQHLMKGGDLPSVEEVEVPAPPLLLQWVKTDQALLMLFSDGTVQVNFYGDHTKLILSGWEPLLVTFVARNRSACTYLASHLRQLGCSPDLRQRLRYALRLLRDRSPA

Mus musculus [13] = assay: Effect on non-proliferating tissue in po dosed BALB/c mouse assessed as toxic lesions in lung; assay type: ADME, organism-based; conditions: in vivo
[14] = target: Serine/threonine-protein kinase PLK1 (Xenopus laevis, UniProt P70032); assay: Inhibition of Xenopus recombinant Plx1 expressed in Sf21 cells by GST-Cdc25 substrate phosphorylation assay; assay type: functional
Chain of Serine/threonine-protein kinase PLK1 (P70032 whole entry): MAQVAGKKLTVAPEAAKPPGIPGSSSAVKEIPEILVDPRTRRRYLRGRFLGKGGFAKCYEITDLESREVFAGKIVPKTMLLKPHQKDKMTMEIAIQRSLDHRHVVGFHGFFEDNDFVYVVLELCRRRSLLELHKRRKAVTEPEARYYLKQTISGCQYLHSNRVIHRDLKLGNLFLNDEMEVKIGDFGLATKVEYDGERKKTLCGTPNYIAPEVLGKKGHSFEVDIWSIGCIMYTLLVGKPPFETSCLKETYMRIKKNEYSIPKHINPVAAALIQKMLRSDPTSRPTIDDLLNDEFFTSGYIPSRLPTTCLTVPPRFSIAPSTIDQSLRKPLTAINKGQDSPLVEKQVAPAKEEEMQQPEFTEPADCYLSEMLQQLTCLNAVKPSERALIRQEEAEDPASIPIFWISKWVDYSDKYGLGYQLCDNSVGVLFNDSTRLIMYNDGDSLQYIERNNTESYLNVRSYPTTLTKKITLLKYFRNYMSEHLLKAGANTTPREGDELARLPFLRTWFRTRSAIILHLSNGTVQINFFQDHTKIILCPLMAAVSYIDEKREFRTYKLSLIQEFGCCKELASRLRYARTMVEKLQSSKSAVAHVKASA

Mus musculus [15] = assay: Subacute toxicity in CD1 mouse assessed as myeloid or lymphoid hyperplasia in bone marrow at 40 mg/kg, ip after 30 days; assay type: organism-based; set-up: dose 40 mg/kg, route intraperitoneal; conditions: in vivo, 720 h
Rattus norvegicus [16] = assay: Toxicity in Lewis rat assessed as absolute lymphocyte counts at 40 mg/kg, iv after 7 days; assay type: organism-based; set-up: dose 40 mg/kg, route intravenous; conditions: in vivo, 168 h
Mus musculus [17] = assay: Effect on non-proliferating tissue in ip dosed CD1 mouse assessed as toxic lesions in lung; assay type: ADME, organism-based; conditions: in vivo
Rattus norvegicus [18] = assay: Effect on non-proliferating tissue in iv dosed Lewis rat assessed as toxic lesions in brain on day 7; assay type: ADME, organism-based; conditions: in vivo
[19] = target: T1, Serine/threonine-protein kinase PLK3; assay: Inhibition of human PLK3 in presence of 100 uM ATP
Mus musculus [20] = assay: Acute toxicity in CD1 mouse assessed as myeloid or lymphoid hyperplasia in bone marrow at 40 mg/kg, ip after 7 days; assay type: organism-based; set-up: dose 40 mg/kg, route intraperitoneal; conditions: in vivo, 168 h
Mus musculus [21] = assay: Effect on non-proliferating tissue in po dosed BALB/c mouse assessed as toxic lesions in kidney; assay type: ADME, organism-based; conditions: in vivo
Mus musculus [22] = assay: Subacute toxicity in CD1 mouse assessed as absolute lymphocyte counts at 10 mg/kg, ip after 30 days; assay type: organism-based; set-up: dose 10 mg/kg, route intraperitoneal; conditions: in vivo, 720 h
[23] = target: Cytoplasmic tyrosine-protein kinase BMX (Homo sapiens, UniProt P51813); assay: Inhibition of BMX kinase
Chain of Cytoplasmic tyrosine-protein kinase BMX (P51813 whole entry): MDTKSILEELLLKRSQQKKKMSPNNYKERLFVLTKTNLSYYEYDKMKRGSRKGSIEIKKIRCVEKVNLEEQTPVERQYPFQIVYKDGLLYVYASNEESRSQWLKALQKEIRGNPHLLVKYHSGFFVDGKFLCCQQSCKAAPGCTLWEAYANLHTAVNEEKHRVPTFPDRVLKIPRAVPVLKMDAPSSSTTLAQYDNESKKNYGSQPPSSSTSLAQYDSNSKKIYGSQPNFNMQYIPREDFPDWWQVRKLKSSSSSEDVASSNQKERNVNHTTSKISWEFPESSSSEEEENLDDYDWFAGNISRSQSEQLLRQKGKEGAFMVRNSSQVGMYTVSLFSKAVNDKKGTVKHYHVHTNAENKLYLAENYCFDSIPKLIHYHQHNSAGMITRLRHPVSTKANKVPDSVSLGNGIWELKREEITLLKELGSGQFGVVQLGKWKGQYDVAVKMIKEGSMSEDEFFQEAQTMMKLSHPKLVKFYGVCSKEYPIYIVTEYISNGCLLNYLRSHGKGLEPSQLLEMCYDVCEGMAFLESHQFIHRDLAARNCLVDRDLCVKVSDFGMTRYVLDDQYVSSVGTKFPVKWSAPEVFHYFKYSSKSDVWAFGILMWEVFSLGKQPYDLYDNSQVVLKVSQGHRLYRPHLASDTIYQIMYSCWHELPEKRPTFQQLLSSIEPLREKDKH

Rattus norvegicus [24] = assay: Toxicity in Lewis rat assessed as myeloid or lymphoid hyperplasia in bone marrow at 20 mg/kg, iV after 7 days; assay type: organism-based; set-up: dose 20 mg/kg, route intravenous; conditions: in vivo, 168 h
[25] = target: Tyrosine-protein kinase ABL1 (Homo sapiens, UniProt P00519); assay: Inhibition of ABL kinase
[26] = target: Cyclin-dependent kinase 2 (Homo sapiens, UniProt P24941); assay: Inhibition of CDK2
Rattus norvegicus [27] = assay: Effect on non-proliferating tissue in iv dosed Lewis rat assessed as toxic lesions in lung on day 7; assay type: ADME, organism-based; conditions: in vivo
Mus musculus [28] = assay: Subacute toxicity in CD1 mouse assessed as WBC counts at 20 mg/kg, ip after 30 days; assay type: organism-based; set-up: dose 20 mg/kg, route intraperitoneal; conditions: in vivo, 720 h
[29] = target: Phosphatidylinositol 4,5-bisphosphate 3-kinase catalytic subunit gamma isoform (Homo sapiens, UniProt P48736); assay: Inhibition of PI3Kgamma
Chain of Phosphatidylinositol 4,5-bisphosphate 3-kinase catalytic subunit gamma isoform (P48736 whole entry, canonical isoform): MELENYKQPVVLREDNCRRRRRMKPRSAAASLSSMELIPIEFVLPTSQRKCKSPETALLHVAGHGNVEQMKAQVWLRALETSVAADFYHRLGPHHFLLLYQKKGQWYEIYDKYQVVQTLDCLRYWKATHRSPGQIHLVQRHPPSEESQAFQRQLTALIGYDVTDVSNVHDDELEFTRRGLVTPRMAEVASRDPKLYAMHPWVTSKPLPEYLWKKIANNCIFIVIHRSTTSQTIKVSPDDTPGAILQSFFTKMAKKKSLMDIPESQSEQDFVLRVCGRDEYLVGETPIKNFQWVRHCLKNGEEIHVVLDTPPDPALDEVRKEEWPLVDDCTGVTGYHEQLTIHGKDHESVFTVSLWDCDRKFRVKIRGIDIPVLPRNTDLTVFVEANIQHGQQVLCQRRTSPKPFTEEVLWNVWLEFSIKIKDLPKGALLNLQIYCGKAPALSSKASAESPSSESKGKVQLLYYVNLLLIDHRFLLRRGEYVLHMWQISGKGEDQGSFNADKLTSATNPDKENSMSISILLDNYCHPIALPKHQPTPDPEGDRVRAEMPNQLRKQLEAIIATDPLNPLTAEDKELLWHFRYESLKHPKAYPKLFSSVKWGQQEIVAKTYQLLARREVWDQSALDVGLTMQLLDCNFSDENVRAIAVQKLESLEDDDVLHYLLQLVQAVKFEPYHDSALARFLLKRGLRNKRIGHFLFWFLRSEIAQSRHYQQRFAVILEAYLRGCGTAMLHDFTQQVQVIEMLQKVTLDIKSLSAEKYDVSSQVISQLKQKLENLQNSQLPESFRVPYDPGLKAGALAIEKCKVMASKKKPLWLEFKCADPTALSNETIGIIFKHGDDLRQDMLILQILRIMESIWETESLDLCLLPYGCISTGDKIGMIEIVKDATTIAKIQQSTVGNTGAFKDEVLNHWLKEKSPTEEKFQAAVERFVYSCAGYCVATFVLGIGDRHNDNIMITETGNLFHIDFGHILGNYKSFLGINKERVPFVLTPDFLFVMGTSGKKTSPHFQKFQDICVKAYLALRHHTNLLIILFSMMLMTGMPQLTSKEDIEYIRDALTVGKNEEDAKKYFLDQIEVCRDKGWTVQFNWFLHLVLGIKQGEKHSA

[30] = target: T1, Serine/threonine-protein kinase PLK3; assay: Inhibition of human PLK3 in presence of 50 uM ATP
Rattus norvegicus [31] = assay: Toxicity in Lewis rat assessed as myeloid or lymphoid hyperplasia in bone marrow at 40 mg/kg, iV after 7 days; assay type: organism-based; set-up: dose 40 mg/kg, route intravenous; conditions: in vivo, 168 h
[32] = target: Tyrosine-protein kinase JAK2 (Homo sapiens, UniProt O60674); assay: Inhibition of JAK2
Chain of Tyrosine-protein kinase JAK2 (O60674 whole entry): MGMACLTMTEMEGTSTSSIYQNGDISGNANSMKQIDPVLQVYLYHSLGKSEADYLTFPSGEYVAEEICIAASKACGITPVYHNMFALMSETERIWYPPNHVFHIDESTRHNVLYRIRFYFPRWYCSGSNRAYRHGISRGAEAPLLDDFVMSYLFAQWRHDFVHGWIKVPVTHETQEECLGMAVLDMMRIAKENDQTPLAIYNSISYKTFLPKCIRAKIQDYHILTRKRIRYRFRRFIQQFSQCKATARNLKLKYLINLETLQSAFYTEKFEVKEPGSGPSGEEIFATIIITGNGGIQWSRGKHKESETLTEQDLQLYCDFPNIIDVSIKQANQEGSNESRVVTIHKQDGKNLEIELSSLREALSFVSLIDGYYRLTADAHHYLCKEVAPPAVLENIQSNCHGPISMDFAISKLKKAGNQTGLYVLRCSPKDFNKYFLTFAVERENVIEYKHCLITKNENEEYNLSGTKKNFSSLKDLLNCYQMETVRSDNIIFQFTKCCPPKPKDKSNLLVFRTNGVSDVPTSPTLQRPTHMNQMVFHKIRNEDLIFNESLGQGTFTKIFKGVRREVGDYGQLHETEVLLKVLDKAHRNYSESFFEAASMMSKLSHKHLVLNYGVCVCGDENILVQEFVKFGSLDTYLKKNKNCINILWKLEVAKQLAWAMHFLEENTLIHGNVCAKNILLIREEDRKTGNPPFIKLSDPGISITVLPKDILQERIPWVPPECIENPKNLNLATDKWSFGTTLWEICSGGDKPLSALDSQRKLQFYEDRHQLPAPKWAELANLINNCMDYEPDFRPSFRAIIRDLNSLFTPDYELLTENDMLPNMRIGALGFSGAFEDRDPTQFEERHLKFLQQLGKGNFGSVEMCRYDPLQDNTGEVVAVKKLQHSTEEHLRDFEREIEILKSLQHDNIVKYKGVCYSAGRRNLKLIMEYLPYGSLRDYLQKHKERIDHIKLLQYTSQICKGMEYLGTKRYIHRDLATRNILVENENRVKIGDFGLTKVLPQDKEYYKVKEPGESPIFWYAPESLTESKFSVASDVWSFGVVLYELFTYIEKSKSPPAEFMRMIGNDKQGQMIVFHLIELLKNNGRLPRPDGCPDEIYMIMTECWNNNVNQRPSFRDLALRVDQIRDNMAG

Mus musculus [33] = assay: Acute toxicity in CD1 mouse assessed as WBC counts at 10 mg/kg, ip after 7 days; assay type: organism-based; set-up: dose 10 mg/kg, route intraperitoneal; conditions: in vivo, 168 h
Mus musculus [34] = assay: Effect on non-proliferating tissue in ip dosed CD1 mouse assessed as toxic lesions in myocardium; assay type: ADME, organism-based; conditions: in vivo
PTK1 = assay: Antiproliferative activity against anaphase PTK1 cells assessed as delay in mitosis completion; assay type: functional, cell-based; conditions: Potorous tridactylus
[35] = target: T1, Serine/threonine-protein kinase PLK3; assay: Inhibition of human PLK3 in presence of 25 uM ATP
Mus musculus [36] = assay: Toxicity in daily po dosed BALB/c mouse; assay type: organism-based; conditions: in vivo
Rattus norvegicus [37] = assay: Toxicity in Lewis rat assessed as myeloid or lymphoid hyperplasia in bone marrow at 80 mg/kg, iV after 7 days; assay type: organism-based; set-up: dose 80 mg/kg, route intravenous; conditions: in vivo, 168 h
[38] = target: Mast/stem cell growth factor receptor Kit (Homo sapiens, UniProt P10721); assay: Inhibition of C-Kit kinase
Mus musculus [39] = assay: Anti-breast cancer activity in ip dosed MMTV/Neu transgenic mouse assessed as tumor progression delay; assay type: functional, organism-based

Question: Which results are given for C/C(O)=C(\C#N)C(=O)Nc1cc(Br)ccc1Br?
Answer: Activity (Mus musculus [1]): 6.4 10^9/L; Activity (Mus musculus [2]): 6 10^9/L; Activity (Rattus norvegicus [3]): 12.9 10^9/L; IC50 [4]: > 500 µM; LD10 (Mus musculus [5]): > 11200 mg/kg; Activity (Rattus norvegicus [6]): 1.6 10^9/L; Activity (Mus musculus [7]): Non-toxic; Activity (Mus musculus [8]): 1.7 10^9/L; Activity (Mus musculus [9]): Non-toxic; Activity (U-373MG ATCC): Active; Activity (Mus musculus [10]): 5.8 10^9/L; IC50 [11]: 267 µM; IC50 [12]: 262 µM; Activity (Mus musculus [13]): Non-toxic; IC50 [14]: 32.5 µM; Activity (Mus musculus [15]): Non-toxic; Activity (Rattus norvegicus [16]): 10.6 10^9/L; Activity (Mus musculus [17]): Non-toxic; Activity (Rattus norvegicus [18]): Non-toxic; IC50 [19]: 125 µM; Activity (Mus musculus [20]): Non-toxic; Activity (Mus musculus [21]): Non-toxic; Activity (Mus musculus [22]): 4.4 10^9/L; IC50 [23]: 281 µM; Activity (Rattus norvegicus [24]): Non-toxic; IC50 [25]: > 500 µM; IC50 [26]: > 500 µM; Activity (Rattus norvegicus [27]): Non-toxic; Activity (Mus musculus [28]): 6.2 10^9/L; IC50 [29]: > 500 µM; IC50 [30]: 79 µM; Activity (Rattus norvegicus [31]): Non-toxic; IC50 [32]: > 500 µM; Activity (Mus musculus [33]): 7 10^9/L; Activity (Mus musculus [34]): Non-toxic; Activity (PTK1): Active; IC50 [35]: 61 µM; LD10 (Mus musculus [36]): > 200 mg/kg; Activity (Rattus norvegicus [37]): Non-toxic; IC50 [38]: > 500 µM; Activity (Mus musculus [39]): Dose-dependent effect
